Source: the RepoRT retention time repository (doi:10.1021/acs.analchem.2c02893)

Experiments:
Settings in all cases: stereoisomer not certain
[1] = RP, Waters ACQUITY UPLC BEH C18, 100 × 2.1 mm, 1.7 µm, 30 °C, 0.35 mL/min, estimated dead time 0.63 min; A: water + 0.01% formic acid + 5 mM ammonium formate, pH 3.71; B: acetonitrile + 0.01% formic acid, pH 3.71; gradient (min/%B) 0/10 3/10 22/100 30/100 30.1/10 40/10
[2] = RP, Waters ACQUITY UPLC BEH C18, 100 × 2.1 mm, 1.7 µm, 35 °C, 0.35 mL/min, estimated dead time 0.63 min; A: water + 0.01% formic acid + 5 mM ammonium formate, pH 3.71; B: acetonitrile + 0.01% formic acid, pH 3.71; gradient (min/%B) 0/5 0.5/5 16/95 16.1/99 19/99 19.1/5 21/5
[3] = RP, Thermo Scientific Acclaim RSLC 120 C18, 100 × 2.1 mm, 2.2 µm, 30 °C, 0.2 mL/min, estimated dead time 1.1 min; A: 90% water + 10% methanol + 0.01% formic acid + 5 mM ammonium formate, pH 3.61; B: methanol + 0.01% formic acid + 5 mM ammonium formate, pH 3.61; gradient (min/%B) 0/1 1/1 2/39 13/99.9 15/99.9 15.1/1 20.1/1
[4] = RP, Thermo Scientific Acclaim RSLC 120 C18, 100 × 2.1 mm, 2.2 µm, 30 °C, 0.2 mL/min, estimated dead time 1.1 min; A: water + 0.1% formic acid, pH 2.6; B: methanol + 0.1% formic acid, pH 2.6; gradient (min/%B) 0/10 4/50 17/95 25/95 25.1/10 30/10

Structure (SMILES)	LC retention time [1] [min]	LC retention time [2] [min]	LC retention time [3] [min]	LC retention time [4] [min]
Nc1nc(N)nc(NC2CC2)n1 [Cyromazine]	1.06	1.23	2.78	2.06
CC(C)NCC(O)COc1cccc2ccccc12 (stereo not drawn) [Propranolol]	8.91	6.49	6.59	6.27
CC(=O)Nc1ccc(O)cc1 [Paracetamol]	1.59	2	3.48	3.52
CCNc1nc(Cl)nc(NC(C)C)n1 [Atrazine]	10.3	7.82	8.16	9.72
CCN(CC)CC(=O)Nc1c(C)cccc1C [Lidocaine]	5.29	4.18	4.54	4.46
CCNc1nc(N)nc(Cl)n1 [Atrazine-desisopropyl]	3.51	3.58	4.75	5.22
CN1CCCC1c1cccnc1 (stereo not drawn) [Nicotine]	1.03	1.17	2.41	1.34
CN=C(NC#N)NCCSCc1nc[nH]c1C [Cimetidine]	1.54	2.11	3.24	2.88
O=P(Oc1ccccc1)(Oc1ccccc1)Oc1ccccc1 [Phosphate-Triphenyl]	15.5	11.8	11	14.3
CCN(CC)C(=O)Nc1ccc(OCC(O)CNC(C)(C)C)c(C(C)=O)c1 (stereo not drawn) [Celiprolol]	7.46	5.34	5.24	5.29
CC(C)NCC(O)COc1ccc(COCCOC(C)C)cc1 (stereo not drawn) [Bisoprolol]	8.09	5.91	5.91	5.8
c1ccc2n[nH]nc2c1 [Benzotriazole (BTR)]	3.69	3.61	4.76	5.31
CCSCc1ccccc1OC(=O)NC [Ethiofencarb]	10.7	8.02	7.7	9.05
O=C(O)c1cn(C2CC2)c2cc(N3CCNCC3)c(F)cc2c1=O [Ciprofloxacin]	5.54	4.13	4.42	4.46
CCC(C(N)=O)N1CCCC1=O (stereo not drawn) [Levetiracetam]	1.68	2.43	3.74	3.89
Cc1cccc(C)c1OCC(=O)NC(Cc1ccccc1)C(O)CC(Cc1ccccc1)NC(=O)C(C(C)C)N1CCCNC1=O (stereo not drawn) [Lopinavir]	14.4	11	11.8	15.4
COc1cccc(C2(O)CCCCC2CN(C)C)c1 (stereo not drawn) [Tramadol]	6.56	4.79	4.88	4.86
COP(=O)(OC)OC=C(Cl)Cl [Dichlorvos]	9.14	6.79	7	8.02
CN(C)CC1CCCCC1(O)c1cccc(O)c1 (stereo not drawn) [Tramadol-O-Desmethyl]	3.56	3.48	4.06	3.86
COP(N)(=O)SC (stereo not drawn) [Methamidophos]	1.18	1.34	2.76	2.61
Nc1ncnc2c1ncn2C1OC(CO)C(O)C1O (stereo not drawn) [Adenosine]	1.31	1.27	3.14	2.13
CNC(=O)ON=C(C)C(C)SC (stereo not drawn) [Butocarboxim]	7.64	5.7	6.07	6.82
